Experimental data as given in US9302999B2, “Substituted triazoles as herbicides” (E. I. DU PONT DE NEMOURS AND COMPANY, priority 2012, dated 2016).

Legend:
Assay type in all cases: in vivo
soybean (Glycine max) = experiment: Test C pre-/postemergence: soybean; details: Preemergence
How it was run: (§1)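 Visual injury scored 0–100 (100 = complete control) against untreated controls after 13–15 greenhouse days. Surfactant-containing solvent formulations applied either to soil after sowing (loam/sand) or over 1- to 4-leaf plants, 2–18 cm tall.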

kochia (Kochia scoparia) = experiment: Test C pre-/postemergence: kochia; details: Preemergence
How it was run: as §1

[1] = test system: ducksalad (Heteranthera limosa); experiment: Test B flooded paddy: ducksalad; details: Flood, applied to paddy water at 2-leaf stage, visually evaluated after 13 to 15 days
How it was run: (§2)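 2-leaf plants; pots flooded 3 cm over soil; compound added to paddy water, depth kept constant. Greenhouse 13–15 d. Visual rating vs controls, 0–100 scale (100 = complete control); dash = no result.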

[2] = test system: barnyardgrass (Echinochloa crus-galli); experiment: Test A pre-/postemergence: barnyardgrass
How it was run: (§3)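 Each species received preemergence soil-directed spraying and, at the same time, postemergence treatment of seedlings 2–10 cm tall. Formulation: non-phytotoxic solvent mixture including surfactant. Response assessed visually about ten days on, relative to untreated controls, 0–100 scale.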

[3] = test system: morningglory (Ipomoea spp.); experiment: Test A pre-/postemergence: morningglory
How it was run: as §3

[4] = test system: foxtail, giant (giant foxtail, Setaria faberii); experiment: Test C pre-/postemergence: foxtail, giant; details: Preemergence
How it was run: as §1

[5] = test system: velvetleaf (Abutilon theophrasti); experiment: Test A pre-/postemergence: velvetleaf
How it was run: as §3

corn (Zea mays) = experiment: Test C pre-/postemergence: corn; details: Preemergence
How it was run: as §1

[6] = test system: barnyardgrass (Echinochloa crus-galli); experiment: Test B flooded paddy: barnyardgrass; details: Flood, applied to paddy water at 2-leaf stage, visually evaluated after 13 to 15 days
How it was run: as §2

[7] = test system: large crabgrass (Digitaria sanguinalis); experiment: Test C pre-/postemergence: large crabgrass; details: Preemergence
How it was run: as §1

[8] = 31 g ai/ha, scale of 0 to 100, 0 is no effect, 100 is complete control
[9] = 62 g ai/ha, scale of 0 to 100, 0 is no effect, 100 is complete control
[10] = 250 g ai/ha, scale 0 to 100, 0 no effect, 100 complete control
[11] = 125 g ai/ha, scale 0 to 100, 0 no effect, 100 complete control
[12] = Postemergence, 125 g ai/ha, 0 to 100 scale, 0 is no effect, 100 is complete control
[13] = Postemergence, 500 g ai/ha, visual rating on 0 to 100 scale (0 no effect, 100 complete control), approximately ten days
[14] = Preemergence, 125 g ai/ha, 0 to 100 scale where 0 is no effect and 100 is complete control
[15] = Preemergence, 500 g ai/ha, 0 to 100 scale (0 no effect, 100 complete control)
[16] = Postemergence, 500 g ai/ha, 0 to 100 scale, 0 is no effect, 100 is complete control

| SMILES | Plant response rating, Soybean (soybean (Glycine max); [8]) | Plant response rating, Soybean (soybean (Glycine max); [9]) | Plant response rating, Soybean (soybean (Glycine max); [10]) | Plant response rating, Barnyardgrass [2, 14] | Plant response rating, Barnyardgrass [2, 15] | Plant response rating, Morningglory [3, 12] | Plant response rating, Morningglory [3, 14] | Plant response rating, Morningglory [3, 15] | Plant response rating, Foxtail, Giant [4, 8] | Plant response rating, Foxtail, Giant [4, 9] | Plant response rating, Foxtail, Giant [4, 11] | Plant response rating, Foxtail, Giant [4, 10] | Plant response rating, Velvetleaf [5, 12] | Plant response rating, Velvetleaf [5, 14] | Plant response rating, Velvetleaf [5, 15] | Plant response rating, Corn (corn (Zea mays); [8]) | Plant response rating, Corn (corn (Zea mays); [9]) | Plant response rating, Corn (corn (Zea mays); [10]) | Plant response rating, Crabgrass, Large [7, 8] | Plant response rating, Crabgrass, Large [7, 9] | also measured |
| --- | --- | --- | --- | --- | --- | --- | --- | --- | --- | --- | --- | --- | --- | --- | --- | --- | --- | --- | --- | --- | --- |
| Cc1nn(-c2ccc(F)cc2F)nc1Oc1ccnc(C(F)(F)F)c1 [Compound 146] | 10 | 15 | 40 | 90 | 100 | 90 | 10 | 60 | 40 | 100 | 100 | 100 | 70 | 10 | 50 | 0 | 0 | 25 | 98 | 100 | Plant response rating, Kochia (kochia (Kochia scoparia); [8]): 30; Plant response rating, Kochia (kochia (Kochia scoparia); [9]): 55; Plant response rating, Kochia (kochia (Kochia scoparia); [11]): 85; Plant response rating, Kochia (kochia (Kochia scoparia); [10]): 85; Plant response rating, Ducksalad (0 to 100 scale, 0 is no effect, 100 is complete control) ([1]; 250 g ai/ha): 60; Barnyardgrass plant response rating [2, 12]: 30; Barnyardgrass plant response rating [2, 13]: 90; Morningglory plant response rating [3, 13]: 90; Velvetleaf plant response rating [5, 13]: 100; Plant response rating, Corn (corn (Zea mays); [11]): 15; Plant response rating, Barnyardgrass (0 to 100 scale, 0 is no effect, 100 is complete control) ([6]; 250 g ai/ha): 50; Plant response rating, Crabgrass, Large [7, 11]: 100; Plant response rating, Crabgrass, Large [7, 10]: 100 |
| CCOCc1nn(-c2ccc(F)cc2)nc1Oc1ccnc(C(F)(F)F)c1 [Compound 163] | 5 | 5 | 20 | 90 | 100 | 30 | 10 | 30 | 40 | 60 | 80 | 100 | 40 | 0 | 20 | 10 | 10 | 10 | 65 | 100 | Plant response rating, Soybean (soybean (Glycine max); [11]): 10; Plant response rating, Ducksalad (0 to 100 scale, 0 is no effect, 100 is complete control) ([1]; 125 g ai/ha): 70; Plant response rating, Barnyardgrass [2, 12]: 70; Barnyardgrass plant response rating [2, 16]: 100; Morningglory plant response rating [3, 16]: 80; Velvetleaf plant response rating [5, 16]: 100; Plant response rating, Barnyardgrass (0 to 100 scale, 0 is no effect, 100 is complete control) ([6]; 125 g ai/ha): 15; Plant response rating, Crabgrass, Large [7, 11]: 100; Plant response rating, Crabgrass, Large [7, 10]: 100 |
